Test results: patent publication US20250049809A1, “INHIBITORS OF MUTANT IDH1 AND IDH2” (Board of Regents, The University of Texas System, priority 2023, published 2025)

Experiments:
TF1 IDH2R140Q = TF1 IDH2R140Q (Homo sapiens (Human), UniProt P48735, R140Q); assay: TF1 IDH2 R140Q 2-HG cellular assay; assay type: cell-based; details: extracellular 2HG, 24 hr treatment, IDH2 mutant-TF1 isogenic cell line
Experimental: The IDH2 mutant-TF1 isogenic cell line (ATCC CRL-20031G) used to test cellular inhibition is an erythroblast cell line that was isolated from the marrow of a patient with erythroleukemia with the IDH2R140Q mutation. These cells are maintained in RPMI-1640 (ATCC 30-2001) culture media with 10% FBS, 10 U/mL Penicillin-Streptomycin, and 2 ng/mL GM-CSF. Thirty thousand cells are plated in polystyrene tissue culture treated 384 well cell culture plates (PerkinElmer 6007680) (30,000 cells/well) approximately 2 hours before compound treatment. Cells are then treated with different concentrations of test compounds (5 μM to 0.3 pM) for 24 hr. Extracellular 2HG levels are measured from cell culture media. For analyte extraction, 30 μL of culture media is transferred to 120 μL 100% acetonitrile in a deep 384 well plate and mixed well, followed by 5 min centrifugation at 3700 rpm at room temperature. 100 μL of supernatant is transferred to a flat bottom 384 well plate. Samples are run on the Agilent RapidFire-Mass Spectrometry instrument to detect 2HG levels. The samples from each well were aspirated for 600 ms and loaded onto a HILIC solid-phase extraction cartridge (Agilent) followed by a wash step for 3000 ms with 90% acetonitrile containing 5 mM ammonium acetate. Analytes were then eluted off the cartridge into the Agilent 6460 Triple Quad mass spectrometer with a 4500 ms elution step using 30% acetonitrile containing 5 mM ammonium acetate. The HILIC cartridge was then re-equilibrated by 90% acetonitrile containing 5 mM ammonium acetate for 500 ms. The 2HG was detected by an Agilent 6460 Triple Quad mass spectrometer in negative ion mode. Multiple reaction monitoring was used to quantify 2HG using the precursor ion and product ion at m/z 147.03 and 128.9, respectively. The percent activity of each sample is calculated by using DMSO and control compound treated references, and IC50 values are obtained using the GeneData Screener data analysis program.

WT IDH2 = WT IDH2 (Homo sapiens (Human), UniProt P48735); assay: WT IDH2 enzymatic activity assay (NADPH fluorescence); assay type: biochemical; details: enzyme assay
Experimental: (§1) The enzymatic activity of WT IDH2 was assessed by measuring the fluorescence of the NADPH generated in the enzymatic reaction. The assay was performed in 384 well, white ProxiPlates (PerkinElmer, 6008280) in assay buffer containing 50 mM Hepes (Life Technologies, 15630080), 50 mM KCl (Teknova, P0327), 10 mM MgCl2 (Sigma-Aldrich, M1028), 1 mM DTT (Sigma-Aldrich, 43815), 0.02% BSA (Sigma-Aldrich, A3059) at pH 7.5. The final reaction volume was 10 μL. Stock solutions of the test compounds were prepared in 100% DMSO (Sigma, D2650) and serially diluted 1:3 using 100% DMSO. 50 nL of compound were then transferred to the assay plate using the Beckman Coulter ECHO 650 Acoustic Liquid Handler for a final DMSO concentration of 0.5%. 5 μL of WT IDH2 were added to the assay plate for a final concentration of 0.5 nM. 5 μL of assay buffer alone were added to negative control wells. 5 μL of an isocitrate (Sigma-Aldrich, 58790) and NADP (Sigma-Aldrich, N5755) mixture were added to the assay plate for a final concentration of 5 μM and 15 μM, respectively. Fluorescence of NADPH (excitation: 350 nm, emission 450 nm) was immediately measured kinetically for approximately 15 minutes using the BioTek Synergy Neo plate reader.

WT IDH1 = WT IDH1 (Homo sapiens (Human), UniProt O75874); assay: WT IDH1 enzymatic activity assay (NADPH fluorescence); assay type: biochemical; details: enzyme assay
Experimental: as §1, with “IDH1” for “IDH2”

mIDH1R132H/S280F = mIDH1R132H/S280F (Homo sapiens (Human), UniProt O75874, R132H/S280F); assay: mIDH1 R132H/S280F enzymatic activity assay (NADPH fluorescence); assay type: biochemical; details: enzyme assay, 1 hour preincubation; read-out: IDH1R132H/S280F IC50
Experimental: The enzymatic activity of mIDH1R132H/S280F was assessed by measuring the fluorescence of the NADPH. The assay was performed in 384 well, white ProxiPlates (PerkinElmer, 6008280) in assay buffer containing 50 mM Hepes (Life Technologies, 15630080), 50 mM KCl (Teknova, P0327), 10 mM MgCl2 (Sigma-Aldrich, M1028), 1 mM DTT (Sigma-Aldrich, 43815), 0.02% BSA (Sigma-Aldrich, A3059) at pH 7.5. The final reaction volume was 10 μL. Stock solutions of the test compounds were prepared in 100% DMSO (Sigma, D2650) and serially diluted 1:3 using 100% DMSO. 50 nL of compound were then transferred to the assay plate using the Beckman Coulter ECHO 650 Acoustic Liquid Handler for a final DMSO concentration of 0.5%. 5 μL of a mIDH1R132H/S280F and NADPH (Santa Cruz, SC202725C) mixture were added to the assay plate for a final concentration of 2 nM and […], respectively. 5 μL of NADPH alone were added to negative control wells followed by a 1 hour preincubation at room temperature. 5 μL of alphaketoglutarate (Sigma-Aldrich, K1128) were added to the assay plate for a final concentration of 120 μM. Fluorescence of NADPH (excitation: 350 nm, emission 450 nm) was immediately measured kinetically for approximately 90 minutes using the BioTek Synergy Neo plate reader.

Chain of TF1 IDH2R140Q (P48735 40-452 R140Q): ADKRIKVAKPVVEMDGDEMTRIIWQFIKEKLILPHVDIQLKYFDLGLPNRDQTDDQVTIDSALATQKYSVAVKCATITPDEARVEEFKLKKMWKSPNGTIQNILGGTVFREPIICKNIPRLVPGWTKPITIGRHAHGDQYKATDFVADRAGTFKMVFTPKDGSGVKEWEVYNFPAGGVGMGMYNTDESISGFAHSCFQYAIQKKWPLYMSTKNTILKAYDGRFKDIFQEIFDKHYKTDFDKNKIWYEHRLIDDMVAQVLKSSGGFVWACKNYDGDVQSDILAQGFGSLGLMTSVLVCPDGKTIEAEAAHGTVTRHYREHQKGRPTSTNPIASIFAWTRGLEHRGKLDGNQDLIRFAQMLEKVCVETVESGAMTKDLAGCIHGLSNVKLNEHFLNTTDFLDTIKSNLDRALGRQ
Chain of mIDH1R132H/S280F (O75874 whole entry R132H/S280F): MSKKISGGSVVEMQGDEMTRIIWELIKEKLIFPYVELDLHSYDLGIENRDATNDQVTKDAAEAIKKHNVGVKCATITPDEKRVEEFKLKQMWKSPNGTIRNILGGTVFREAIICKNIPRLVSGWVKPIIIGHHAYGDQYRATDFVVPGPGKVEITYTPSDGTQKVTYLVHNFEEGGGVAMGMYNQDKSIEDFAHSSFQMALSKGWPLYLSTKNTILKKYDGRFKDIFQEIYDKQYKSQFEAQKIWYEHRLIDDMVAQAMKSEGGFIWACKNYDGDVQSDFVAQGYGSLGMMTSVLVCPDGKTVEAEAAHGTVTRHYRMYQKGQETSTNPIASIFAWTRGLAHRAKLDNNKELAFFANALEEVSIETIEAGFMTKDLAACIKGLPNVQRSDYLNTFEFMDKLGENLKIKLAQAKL
Chain of WT IDH1 (O75874 whole entry): as the sequence (O75874 whole entry R132H/S280F) above, with H132R, F280S counted along it
Chain of WT IDH2 (P48735 40-452): as the sequence (P48735 40-452 R140Q) above, with Q101R counted along it

Row | Compound | IC50 (TF1 IDH2R140Q) | IC50 (WT IDH2) | IC50 (WT IDH1) | IC50 (mIDH1R132H/S280F)
1 | C=CC(=O)N1CCN(C2CCCCCCCN3C(=O)OCc4cnc(nc43)N[C@@H](C)c3ccc2cc3)CC1 (stereo partly drawn) [Example 4, (3S)-5-(4-acryloylpiperazin-1-yl)-3-methyl-1^1,1^4-dihydro-1^2H-2-aza-1(7,1)-pyrimido[4,5-d][1,3]oxazina-4(1,4)-benzenacyclododecaphan-1^2-one] | 282 nM | 41.2 µM | > 16.7 µM | 295 nM
2 | C=CC(=O)N1CCN(C2CCCC/C=C/CN3C(=O)OCc4cnc(nc43)N[C@@H](C)c3ccc2cc3)CC1 (stereo partly drawn) [Example 3, (3S,E)-5-(4-acryloylpiperazin-1-yl)-3-methyl-1^1,1^4-dihydro-1^2H-2-aza-1(7,1)-pyrimido[4,5-d][1,3]oxazina-4(1,4)-benzenacyclododecaphan-10-en-1^2-one] | 277 nM | 16.2 µM | 3.17 µM | 260 nM
